Measured values as given in US20240277698A1, “METHODS OF USING ALDOSTERONE SYNTHASE INHIBITORS” (CINCOR PHARMA, INC., priority 2021, published 2024).

Experiments:
[1] = SAD study Part 2: adverse events under low/normal salt diet and 3 mg IV dose; type: in vivo
Procedure: There were no dose-related increases in the incidence of AEs (Table 15). No severe AEs, SAEs, withdrawals due to AEs, or deaths were reported. A larger proportion of subjects reported AEs during the 3 mg IV dose (75%) compared to any of the oral doses (maximum of 66.7% with 3 mg during the low salt diet and with 10 mg during both the low and normal salt diet). Overall, the most frequently reported AEs were nasopharyngitis, asthenia, and dizziness. AEs reported by >1 subject at any dose level and with either salt diet were asthenia (2 subjects [33.3%] with 10 mg low salt diet, 2 subjects [33.3%] with placebo low salt diet), nasopharyngitis (3 subjects [37.5%] with 3 mg IV, 2 subjects [33.3%] with 10 mg low salt diet), dizziness (2 subjects [33.3%] with 3 mg low salt diet) and gingival pain (2 subjects [33.3%] with 10 mg low salt diet). Only 1 AE (dizziness) reported by a subject receiving 10 mg (R)-compound 1 under normal salt diet conditions was considered related to the study drug. One case of fractured coccyx and one case of concussion (both reported for subjects who received the IV dose) were moderate in intensity and all other AEs were mild in intensity. […]

aldosterone synthase = molecular target: T1, aldosterone synthase (Homo sapiens, UniProt P19099); assay: MAD study: urine aldosterone and tetrahydroaldosterone; type: in vivo; details: mean
T1 construct: synthesized in the adrenal cortex by aldosterone synthase; endogenous in cells; host or cells: adrenal cortex of healthy human subjects (in vivo, oral dosing)
T1 sequence (P19099 25-503): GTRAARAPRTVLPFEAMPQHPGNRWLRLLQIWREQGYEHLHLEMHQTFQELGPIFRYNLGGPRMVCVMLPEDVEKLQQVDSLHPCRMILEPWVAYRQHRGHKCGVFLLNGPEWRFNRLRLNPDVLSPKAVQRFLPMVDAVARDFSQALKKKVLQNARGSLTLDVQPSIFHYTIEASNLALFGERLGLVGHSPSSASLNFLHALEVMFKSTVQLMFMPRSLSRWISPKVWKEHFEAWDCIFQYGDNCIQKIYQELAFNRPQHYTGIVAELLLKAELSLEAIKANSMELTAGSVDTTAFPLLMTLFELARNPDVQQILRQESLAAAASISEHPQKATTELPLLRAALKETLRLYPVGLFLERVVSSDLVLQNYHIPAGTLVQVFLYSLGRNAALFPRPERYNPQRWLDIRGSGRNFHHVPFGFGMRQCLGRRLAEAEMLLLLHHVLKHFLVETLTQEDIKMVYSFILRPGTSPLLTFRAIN
Source text: For each subject, the study consisted of: • A screening period of up to 28 days; • A 5-day inpatient run-in period during which subjects adhered to a controlled, standardized diet and underwent baseline PD assessments; • A 15-day inpatient treatment period, during which subjects received (R)-compound 1 or placebo once daily for 10 days while adhering to a controlled, standardized diet, followed by PK and PD sampling over an additional 5 days; and • A follow-up visit 3 days (1 day) after discharge from the clinical unit. • A cortisol stimulation test (Cohorts 1 and 2 only) and standing aldosterone assessment (all cohorts) were performed on Days 1 and 10. Serial blood samples for PK and PD were obtained prior to and at specified time points over 24 hours after dosing on Day 1 as well as prior to and at specified time points over 120 hours after dosing on Day 10. In addition, blood samples for PK were collected prior to dosing on Days 8 and 9. Urine for PK and PD measurements was collected over 24 hours starting just prior to dosing on Day 1 as well as over 120 hours starting just prior to dosing on Day 10.
Urine PD measures included concentrations of • Aldosterone; • Cortisol (free and total); and • Tetrahydroaldosterone.
For analysis, the urine PD concentrations were converted to total analyte amounts: Total amount (unit)=concentration (unit/volume) • urine volume

CCC(=O)N[C@@H]1CCCc2c(-c3ccc4c(c3)CCC(=O)N4C)cncc21 [(R)-Compound 1, (R)—N-(4-(1-methyl-2-oxo-1,2,3,4-tetrahydroquinolin-6-yl)-5,6,7,8-tetrahydroisoquinolin-8-yl)propionamide]
Any AE, % of subjects ([1]; 1 mg, low salt diet, N = 6): (33.3) % | Any AE, number of subjects ([1]; 1 mg, low salt diet, N = 6): 2 | Related AE, number of subjects ([1]; 1 mg, low salt diet, N = 6): 0 | Any AE, % of subjects ([1]; 1 mg, normal salt diet, N = 6): (50.0) % | Any AE, number of subjects ([1]; 1 mg, normal salt diet, N = 6): 3 | Related AE, number of subjects ([1]; 1 mg, normal salt diet, N = 6): 0 | proportion of subjects reporting AEs ([1]; 3 mg IV dose): 75% | Any AE, % of subjects ([1]; 3 mg IV, N = 8): (75.0) % | Any AE, number of subjects ([1]; 3 mg IV, N = 8): 6 | Related AE, number of subjects ([1]; 3 mg IV, N = 8): 0 | proportion of subjects reporting AEs, maximum of the oral doses ([1]; 3 mg low salt diet, 10 mg low and normal salt diet): ≤ 66.7% | Any AE, % of subjects ([1]; 3 mg, low salt diet, N = 6): (66.7) % | Any AE, number of subjects ([1]; 3 mg, low salt diet, N = 6): 4 | Related AE, number of subjects ([1]; 3 mg, low salt diet, N = 6): 0 | Any AE, % of subjects ([1]; 3 mg, normal salt diet, N = 6): (33.3) % | Any AE, number of subjects ([1]; 3 mg, normal salt diet, N = 6): 2 | Related AE, number of subjects ([1]; 3 mg, normal salt diet, N = 6): 0 | AEs considered related to the study drug (dizziness) ([1]; 10 mg normal salt diet): 1 AE | Any AE, % of subjects ([1]; 10 mg, low salt diet, N = 6): (66.7) % | Any AE, number of subjects ([1]; 10 mg, low salt diet, N = 6): 4 | Related AE, number of subjects ([1]; 10 mg, low salt diet, N = 6): 0 | Any AE, % of subjects ([1]; 10 mg, normal salt diet, N = 6): (66.7) % | Any AE, number of subjects ([1]; 10 mg, normal salt diet, N = 6): 4 | Related AE, % of subjects ([1]; 10 mg, normal salt diet, N = 6): (16.7) % | Related AE, number of subjects ([1]; 10 mg, normal salt diet, N = 6): 1 | Urine aldosterone (ng), Percent change from baseline (Day −1) to Day 1 0-24 hr (aldosterone synthase; 0.5 mg QD, normal salt diet): −23.7290% | Urine aldosterone (ng), Percent change from baseline (Day −1) to Day 10 0-24 hr (aldosterone synthase; 0.5 mg QD, normal salt diet): 4.2728% | Urine tetrahydroaldosterone (ng), Percent change from baseline (Day −1) to Day 1 0-24 hr (aldosterone synthase; 0.5 mg QD, normal salt diet): −12.0171% | Urine tetrahydroaldosterone (ng), Percent change from baseline (Day −1) to Day 10 0-24 hr (aldosterone synthase; 0.5 mg QD, normal salt diet): 11.0511% | Urine aldosterone (ng), Percent change from baseline (Day −1) to Day 1 0-24 hr (aldosterone synthase; 1.5 mg QD, normal salt diet): −67.6229% | Urine aldosterone (ng), Percent change from baseline (Day −1) to Day 10 0-24 hr (aldosterone synthase; 1.5 mg QD, normal salt diet): −65.6831% | Urine tetrahydroaldosterone (ng), Percent change from baseline (Day −1) to Day 1 0-24 hr (aldosterone synthase; 1.5 mg QD, normal salt diet): −47.0556% | Urine tetrahydroaldosterone (ng), Percent change from baseline (Day −1) to Day 10 0-24 hr (aldosterone synthase; 1.5 mg QD, normal salt diet): −60.9034% | Urine aldosterone (ng), Percent change from baseline (Day −1) to Day 1 0-24 hr (aldosterone synthase; 2.5 mg QD, low salt diet): −61.1877% | Urine aldosterone (ng), Percent change from baseline (Day −1) to Day 10 0-24 hr (aldosterone synthase; 2.5 mg QD, low salt diet): −19.3985% | Urine tetrahydroaldosterone (ng), Percent change from baseline (Day −1) to Day 1 0-24 hr (aldosterone synthase; 2.5 mg QD, low salt diet): −26.0540% | Urine tetrahydroaldosterone (ng), Percent change from baseline (Day −1) to Day 10 0-24 hr (aldosterone synthase; 2.5 mg QD, low salt diet): −6.2967% | Urine aldosterone (ng), Percent change from baseline (Day −1) to Day 1 0-24 hr (aldosterone synthase; 2.5 mg QD, normal salt diet): −71.7141% | Urine aldosterone (ng), Percent change from baseline (Day −1) to Day 10 0-24 hr (aldosterone synthase; 2.5 mg QD, normal salt diet): −50.7592% | Urine tetrahydroaldosterone (ng), Percent change from baseline (Day −1) to Day 1 0-24 hr (aldosterone synthase; 2.5 mg QD, normal salt diet): −59.6517% | Urine tetrahydroaldosterone (ng), Percent change from baseline (Day −1) to Day 10 0-24 hr (aldosterone synthase; 2.5 mg QD, normal salt diet): −55.1771% | Urine aldosterone (ng), Percent change from baseline (Day −1) to Day 1 0-24 hr (aldosterone synthase; 5.0 mg QD, low salt diet): −83.5768% | Urine tetrahydroaldosterone (ng), Percent change from baseline (Day −1) to Day 1 0-24 hr (aldosterone synthase; 5.0 mg QD, low salt diet): −67.5905% | Urine tetrahydroaldosterone (ng), Percent change from baseline (Day −1) to Day 10 0-24 hr (aldosterone synthase; 5.0 mg QD, low salt diet): −64.5164%
